Where no end group is shown, it is not given here.
Columns and labels:
[1] = tested on: BrdU-positive cells of the dentate gyrus of the hippocampus; assay: Hippocampal neurogenesis by BrdU immunohistochemistry; assay type: in vivo; details: mice, four days of treatment, FIG. 5
Experimental: BrdU (5-bromo-2′-deoxyuridine) is a synthetic nucleoside analogous to thymidine. It is incorporated during DNA replication during phase S (chromosome duplication during interphase) of the cells in division. Injection of BrdU makes it possible to visualize the cells in division of the tissue to be analyzed by means of immunological labeling. In the present study, the hippocampal neurogenesis of the mice was evaluated after treatment with spadin or the different analogs.
After the behavioral tests, the mice were injected with BrdU at a final concentration of 120 mg/kg intraperitoneally, according to the modified protocol of Beauquis, J. et al. (Eur J Neurosci 23, 1539-1546, 2007). Four injections of 300 μl at 10 mg/ml, spaced two hours apart, were performed. 24 hours after the injections, the mice were anesthetized with pentobarbital (100 mg/kg) and then perfused intracardially. During the intracardiac perfusion, physiological saline was administered to remove all blood from the body of the mice, and then 4% paraformaldehyde (PFA) was perfused to fix the organs. Post-fixation in 4% PFA was also performed overnight. The brains of the mice were cut with a vibratome (Leica), which allowed 40 μm floating frontal sections to be obtained. The sections selected for the immunological reaction were those ranging from bregma 3.3 to 5.3. Eight sections were selected with a regular spacing, allowing the entire hippocampus to be covered while remaining homogeneous from one brain to another.
The immunological reaction was performed by incubating an anti-BrdU primary antibody (BD Pharmingen, 1/8000), with the brain sections, overnight at 4° C. The brain sections were then washed in PBS (Phosphate Buffered Saline) and incubated for two hours with the secondary antibody (biotinylated goat anti-mouse antibody, Vector laboratories, 1/400). […]
The sections were then mounted on slides and fixed with Entellan. BrdU-positive cells of the dentate gyrus of the hippocampus were counted in both hemispheres of each brain. […]

[2] = tested on: PSD-95 protein; assay: Synaptogenesis: PSD-95 expression in cortical neurons by Western blot; assay type: cell-based, mouse C57BI/6J; details: 1 μM, 0-36 hours, normalized to ß-actin, FIG. 6
Experimental: Pregnant female C57BI/6J mice (20-25 g, Janvier Labs, St Berthevin, France) were anesthetized by inhalation of 2% isoflurane mixed with 30% oxygen and 70% nitrous oxide, and then sacrificed. The embryos (E14) were removed and the cerebral cortex was dissected in PBS containing 1% glucose. Neurons were prepared from cerebral cortex by mechanical dissociation, as described in Brewer and Torricelli, 2007 [26]. The dissociated neurons were distributed in poly-L-lysine treated plates and cultured for up to 10 days in neurobasal medium containing 2% B27 (Invitrogen, Fisher Scientific, Illkirch, France) and 50 μg/ml gentamycin (Sigma France), at 37° C. under 5% CO2. […]
Cortical neurons treated with peptides G/A-PE(22-28) and biotinylated G/A-PE(22-28) for different durations (0, 5, 8, 24 and 36 hours) were homogenized in Laemmli buffer and analyzed using 10% SDS-Page gels. […] The ß-actin contents were determined after extraction using a 1/5000 dilution of anti-β-actin antibodies (Santa Cruz mouse monoclonal antibody, dilution 1/5000). […] The proteins were detected with ECL Plus detection reagents (Amersham Biosciences) using the LAS-3000 imaging system (Fujifilm, Düsseldorf, Germany). The relative intensities of each labeled band were analyzed by densitometric scanning using ImageJ software (Wayne Rasband, National Institute of Health, Bethesda, Md., USA). […]

With AVSWGLR [G/A-PE(22-28), AVSWGLR] the “neurogenesis (BrdU-positive cells of the hippocampus)” value [1] was “increase neurogenesis more strongly than peptide PE(22-28)”, the “neurogenesis (BrdU-positive cells of the hippocampus)” value ([1]; listed as G/APE(22-28)) was “capable of inducing an increase in neurogenesis” and the “PSD-95 synaptic protein expression (synaptogenesis)” value [2] was “increased PSD-95 synaptic protein expression”.
